Test results reported in US20260191875A1, “FUSED AMINO PYRIMIDINE COMPOUNDS FOR TREATMENT OF ADDICTION AND INSOMNIA” (Ovid Therapeutics Inc., priority 2024, published 2026).
Numbering of substitutions follows the chain as printed.

Experiments:
[1] = test system: panel of 144 protein kinases; assay: panel of 144 protein kinases (SelectScreen; Thermofisher); assay type: biochemical; conditions: 144 protein kinases incl. PKC isoforms, OSR1, SPAK, WNK
[2] = test system: acute brain slices exposed to 0-Mg; assay: late recurrent discharges in acute brain slices exposed to 0-Mg
KCC2-S940A = biological target: T1, KCC2-S940A (Homo sapiens, UniProt Q9H2X9, S963A); assay: Tl+ flux assay, HEK-293 cells expressing KCC2-S940A; assay type: cell-based
T1 construct: expressed in transfected cells; host or cells: HEK-293
T1 sequence (Q9H2X9 1-1116 isoform Q9H2X9-2 S940A): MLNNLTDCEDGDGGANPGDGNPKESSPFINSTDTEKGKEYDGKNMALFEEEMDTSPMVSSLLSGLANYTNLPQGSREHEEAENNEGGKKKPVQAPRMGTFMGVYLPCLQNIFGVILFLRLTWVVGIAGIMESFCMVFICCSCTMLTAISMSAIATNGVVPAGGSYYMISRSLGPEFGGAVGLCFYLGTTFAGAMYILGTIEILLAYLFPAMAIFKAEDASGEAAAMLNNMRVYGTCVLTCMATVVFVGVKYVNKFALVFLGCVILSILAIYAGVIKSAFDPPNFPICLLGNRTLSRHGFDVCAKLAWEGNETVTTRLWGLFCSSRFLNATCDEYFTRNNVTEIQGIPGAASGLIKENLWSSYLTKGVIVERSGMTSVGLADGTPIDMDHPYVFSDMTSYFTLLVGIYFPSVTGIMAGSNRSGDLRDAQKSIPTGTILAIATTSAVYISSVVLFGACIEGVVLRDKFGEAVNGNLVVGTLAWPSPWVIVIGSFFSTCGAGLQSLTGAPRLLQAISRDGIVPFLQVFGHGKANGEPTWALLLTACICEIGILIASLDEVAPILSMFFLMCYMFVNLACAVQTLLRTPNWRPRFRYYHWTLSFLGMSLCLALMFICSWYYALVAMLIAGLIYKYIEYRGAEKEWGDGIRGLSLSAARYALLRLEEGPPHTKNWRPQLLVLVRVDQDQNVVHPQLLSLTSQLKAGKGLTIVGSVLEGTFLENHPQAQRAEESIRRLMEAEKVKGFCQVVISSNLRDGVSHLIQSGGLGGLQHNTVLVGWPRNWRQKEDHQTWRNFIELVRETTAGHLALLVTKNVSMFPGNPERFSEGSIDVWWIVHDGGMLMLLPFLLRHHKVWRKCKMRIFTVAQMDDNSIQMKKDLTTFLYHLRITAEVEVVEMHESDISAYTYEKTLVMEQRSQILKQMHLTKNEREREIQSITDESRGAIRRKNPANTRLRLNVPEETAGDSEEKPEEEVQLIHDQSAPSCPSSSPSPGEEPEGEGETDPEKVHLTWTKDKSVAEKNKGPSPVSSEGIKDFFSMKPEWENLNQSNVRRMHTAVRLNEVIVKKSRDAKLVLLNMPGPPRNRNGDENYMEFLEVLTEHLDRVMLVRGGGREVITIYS
Protocol: FLIPR TI Flux assay. HEK-293 cells were washed with HBSS, and then incubated with loading buffer containing TI sensitive fluorescent dye (https://www.moleculardevices.com), 20 μM bumetanide 20 μM ouabain and 2.5 mM probenecid for 1 h at room temperature (RT) under control conditions or with drugs in the dark using a FlexStation 3 microplate reader (Molecular Devices) and imaged […] for 30 min. Stimulus buffer was added containing 5 mM K^+/0.5 mM Tl^+ and cells were imaged every 1.5 over a 190 second time course The initial rate Tl^+ uptake (Relative Fluorescence Units (RFU) per second) was determined following addition of the stimulus buffer as outlined previously (Conway et al., 2017, supra) (Lee et al., 2022, supra).
Several studies have shown that the activity and plasma membrane accumulation of KCC2 is potentiated via phosphorylation of S940, a process mediated by the activity of protein kinase C and protein phosphatase 1 (Lee et al., 2011, supra, Lee et al., J Biol Chem 282, 29777-29784 (2007); Moore et al., Proc. Natl. Acad. Sci. U.S.A 115, 10166-10171 (2018); Moore et al., Trends Neurosci. 40, 555-571 (2017); Silayeva et al., Proc. Natl. Acad. Sci. U.S.A 112, 3523-3528 (2015)). […] Compared to KCC2, effects on KCC3, KCC4, and NKCC1 were only seen at concentrations more than 35-fold that of KCC2 (>100 μM) (FIG. 1G).

KCC2 = biological target: T2, KCC2 (Homo sapiens, UniProt Q9H2X9); assay: cellular thermal shift assay (CETSA), HEK-293 cells expressing KCC2; assay type: binding
T2 construct: expressed in transfected cells; host or cells: HEK-293 (ATCC CRL-1573), transient transfection
T2 sequence (Q9H2X9 1-1116 isoform Q9H2X9-2): T1 sequence (Q9H2X9 1-1116 isoform Q9H2X9-2 S940A) with A940S
Protocol: Determining if compounds in SSA directly interact with KCC2. This was tested using a cellular thermal shift assay (CETSA), which measures the ability of a drug to modify the thermal stability of its target in whole cells (Kawatkar et al., ACS Chem. Biol. 14, 1913-1920 (2019); Martinez et al., Sci Rep 8, 9472 (2018)).
2×10^6 transfected HEK-293 cells were incubated with 30 μM drug or vehicle for 90 min at 37° C. and then heated from 37-58° C. for 5 min. Cells were rapidly chilled to 25° C. and NP40 was added to a final concentration […] to snap freezing in liquid nitrogen. Following 5 freeze/thaw cycles lysates were centrifuged at 12,000×g to remove denatured proteins and associated cell debris.
Aliquots of HEK-293 cells expressing KCC2 were exposed to 30 μM SSA, heated from 37-55° C. The remaining level of soluble native KCC2 at each temperature was measured by immunoblotting and normalized to the level seen at 37° C. which was given a value of 1. […] This panel included protein kinase C isoforms, OSR1, SPAK (STK39) and with-no-lysine kinases (WNK), all of which phosphorylate KCC2 on multiple residues to indirectly modify its activity (Kahle et al., 2013, supra; Smalley et al., 2020, supra).

[3] = PK studies, brain and plasma levels by LC-MS/MS; assay type: in vivo, Mice; conditions: 50 mg/kg SC
Protocol: PK studies. […] Plasma and brain samples were rapidly frozen on dry ice.
Drug accumulation in the brain was examined following SC injection (FIG. 4C; 50 mg/kg).

[4] = parameters: species or system Mice; conditions: in vivo
[5] = test system: neuronal cell death in the hippocampus; assay: neuronal cell death in the hippocampus, mice treated with Compound A and diazepam; assay type: in vivo; conditions: Compound A and diazepam vs diazepam alone

## C[C@@H]1CN(c2nc3c(c(Nc4ccc(C5CCCCC5)cc4)n2)COC3)CCO1 [Compound A, (R)—N-(4-cyclohexylphenyl)-2-(2-methylmorpholino)-5,7-dihydrofuro[3,4-d]pyrimidin-4-amine]
[1]
  activity of kinase panel: did not modify the activity
[2]
  development of late recurrent discharges (LRDs): reduced
KCC2-S940A
  activity of KCC2-S940A construct: increased the activity
KCC2
  direct binding to KCC2: capable of directly binding to KCC2
[3]
  accumulation in the brain at 30 min: detected
  brain level 8 h later: maintained
  time of maximal concentration in the brain: 4 h
[4]
  gross effects on mouse behavior: no gross effects on mouse behavior
[5]
  neuronal cell death in the hippocampus: significantly reduced
